Data taken from patent publication US20100222332A1, “PYRAZOLO-PYRAZINES DERIVATIVES USED AS G PROTEIN INHIBITORS” (Ipsen Pharma S.A.S., priority 2007, published 2010).
Counter-ions that a name gives are not always drawn. Like-named read-outs stand apart in the source and are kept apart here.

Columns and labels:
Format in all cases: cell-based
[1] = tested on: DU145 (human prostate cancer cells); assay: Anti-proliferative activity on DU145 cell line (WST1 colorimetric test); conditions: DU-145, treated for 96 hours, read-out: IC50 on the cell proliferation of the DU145 lines
Procedure: (§1) By way of example, the effect of a treatment on three human cell lines DU145, LNCaP and A2058 with the compounds of the examples described previously will be studied. The cell lines DU145 and LNCaP (human prostate cancer cells) and A2058 (human melanoma cancer cells) were acquired from the American Tissue Culture Collection (Rockville, Md., USA). The cells placed in 80 μl of Dulbecco's Modified Eagle medium (Gibco-Brl, Cergy-Pontoise, France) completed with 10% foetal calf serum inactivated by heating (Gibco-Brl, Cergy-Pontoise, France), 50000 units/l of penicillin and 50 mg/l streptomycin (Gibco-Brl, Cergy-Pontoise, France), and 2 mM of glutamin (Gibco-Brl, Cergy-Pontoise, France) were seeded on a 96-well plate on day 0. The cells were treated on day 1 for 96 hours with increasing concentrations of each of the compounds to be tested up to 10 μM. At the end of this period, the quantification of the cell proliferation is evaluated by a colorimetric test based on the cleavage of the tetrazolium salt WST1 by mitochondrial dehydrogenases in the viable cells leading to the formation of formazan (Boehringer Mannheim, Meylan, France). These tests are carried out in duplicate with 8 determinations per tested concentration. For each compound to be tested, the values included in the linear part of the sigmoid were retained for linear regression analysis and used in order to estimate the inhibitory concentration IC50. The products are solubilized in dimethylsulphoxide (DMSO) at 10^−2 M and finally used in culture with 0.1% DMSO.

[2] = tested on: LNCaP (human prostate cancer cells); assay: Anti-proliferative activity on LNCaP cell line (WST1 colorimetric test); conditions: treated for 96 hours, read-out: IC50 on the cell proliferation of the LNCaP lines
Procedure: as §1

[3] = tested on: A2058 (human melanoma cancer cells); assay: Anti-proliferative activity on A2058 cell line (WST1 colorimetric test); conditions: treated for 96 hours, read-out: IC50 on the cell proliferation of the A2058 lines
Procedure: as §1

Row | SMILES | IC50 [1] [µM] | IC50 [2] [µM] | IC50 ([3]; bound given in mM) [mM] | IC50 ([1]; unit inferred) [µM] | IC50 [3] [mM]
1 | N[C@@H](CSSC[C@H](N)C(=O)N1CCn2nc(-c3ccco3)cc2C1CCc1ccccc1)C(=O)N1CCn2nc(-c3ccco3)cc2C1CCc1ccccc1 (mixture of isomers) [Example 19, (2R)-3-({(2R)-2-amino-3-[(4RS)-2-(2-furyl)-4-(2-phenylethyl)-6,7-dihydropyrazolo[1,5-a]pyrazin-5(4H)-yl]-3-oxopropyl}dithio)-1-[(4RS)-2-(2-furyl)-4-(2-phenylethyl)-6,7-dihydropyrazolo[1,5-a]pyrazin-5(4H)-yl]-1-oxopropan-2-amine hydrochloride] | – | ≤ 5 | – | ≤ 15 | ≤ 0.02
2 | COc1cc(-c2cc3n(n2)CCN(C(=O)[C@@H](N)CSSC[C@H](N)C(=O)N2CCn4nc(-c5cc(OC)c(OC)c(OC)c5)cc4C2CCc2ccccc2)C3CCc2ccccc2)cc(OC)c1OC (mixture of isomers) [Example 17, (2R)-3-({(2R)-2-amino-3-oxo-3-[(4RS)-4-(2-phenylethyl)-2-(3,4,5-trimethoxyphenyl)-6,7-dihydropyrazolo[1,5-a]pyrazin-5(4H)-yl]propyl}dithio)-1-oxo-1-[(4RS)-4-(2-phenylethyl)-2-(3,4,5-trimethoxyphenyl)-6,7-dihydropyrazolo[1,5-a]pyrazin-5(4H)-yl]propan-2-amine hydrochloride] | – | ≤ 10 | – | ≤ 15 | ≤ 0.02
3 | N[C@@H](CSSC[C@H](N)C(=O)N1CCn2nc(-c3cccs3)cc2C1CCc1ccccc1)C(=O)N1CCn2nc(-c3cccs3)cc2C1CCc1ccccc1 (mixture of isomers) [Example 18, (2R)-3-({(2R)-2-amino-3-oxo-3-[(4RS)-4-(2-phenylethyl)-2-(2-thienyl)-6,7-dihydropyrazolo[1,5-a]pyrazin-5(4H)-yl]propyl}dithio)-1-oxo-1-[(4RS)-4-(2-phenylethyl)-2-(2-thienyl)-6,7-dihydropyrazolo[1,5-a]pyrazin-5(4H)-yl]propan-2-amine hydrochloride] | – | ≤ 5 | – | ≤ 15 | ≤ 0.02
4 | CCCCC1c2cc(-c3ccccc3)nn2CCN1C(=O)[C@@H](N)CSSC[C@H](N)C(=O)N1CCn2nc(-c3ccccc3)cc2C1CCCC (mixture of isomers) [Example 21, (2R)-3-({(2R)-2-amino-3-[(4RS)-4-butyl-2-phenyl-6,7-dihydropyrazolo[1,5-a]pyrazin-5(4H)-yl]-3-oxopropyl}dithio)-1-[(4RS)-4-butyl-2-phenyl-6,7-dihydropyrazolo[1,5-a]pyrazin-5(4H)-yl]-1-oxopropan-2-amine hydrochloride] | ≤ 20 | ≤ 5 | ≤ 0.01 | – | –
5 | N[C@@H](CSSC[C@H](N)C(=O)N1CCn2nc(-c3ccc4c(c3)OCO4)cc2C1CCc1ccccc1)C(=O)N1CCn2nc(-c3ccc4c(c3)OCO4)cc2C1CCc1ccccc1 (mixture of isomers) [Example 16, (2R)-3-({(2R)-2-amino-3-[(4RS)-2-(1,3-benzodioxol-5-yl)-4-(2-phenylethyl)-6,7-dihydropyrazolo[1,5-a]pyrazin-5(4H)-yl]-3-oxopropyl}dithio)-1-[(4RS)-2-(1,3-benzodioxol-5-yl)-4-(2-phenylethyl)-6,7-dihydropyrazolo[1,5-a]pyrazin-5(4H)-yl]-1-oxopropan-2-amine hydrochloride] | ≤ 20 | ≤ 10 | – | – | ≤ 0.03
6 | CCCCCC1c2cc(-c3ccccc3)nn2CCN1C(=O)[C@@H](N)CSSC[C@H](N)C(=O)N1CCn2nc(-c3ccccc3)cc2C1CCCCC (mixture of isomers) [Example 20, (2R)-3-({(2R)-2-amino-3-oxo-3-[(4RS)-4-pentyl-2-phenyl-6,7-dihydropyrazolo[1,5-a]pyrazin-5(4H)-yl]propyl}dithio)-1-oxo-1-[(4RS)-4-pentyl-2-phenyl-6,7-dihydropyrazolo[1,5-a]pyrazin-5(4H)-yl]propan-2-amine hydrochloride] | – | ≤ 10 | ≤ 0.01 | ≤ 15 | –

Further lines, results first:

Row | IC50 [1] [µM] | IC50 [2] [µM] | IC50 ([3]; bound given in mM) [mM] | IC50 ([1]; unit inferred) [µM] | IC50 [3] [mM] | SMILES
7 | ≤ 20 | ≤ 1 | ≤ 0.01 | – | – | N[C@@H](CSSC[C@H](N)C(=O)N1CCn2nc(-c3ccc(Cl)cc3Cl)cc2C1CCc1ccccc1)C(=O)N1CCn2nc(-c3ccc(Cl)cc3Cl)cc2C1CCc1ccccc1 (mixture of isomers) [Example 22, (2R)-3-({(2R)-2-amino-3-[(4RS)-2-(2,4-dichlorophenyl)-4-(2-phenylethyl)-6,7-dihydropyrazolo[1,5-a]pyrazin-5(4H)-yl]-3-oxopropyl}dithio)-1-[(4RS)-2-(2,4-dichlorophenyl)-4-(2-phenylethyl)-6,7-dihydropyrazolo[1,5-a]pyrazin-5(4H)-yl]-1-oxopropan-2-amine hydrochloride]
8 | ≤ 10 | ≤ 1 | ≤ 0.01 | – | – | N[C@@H](CSSC[C@H](N)C(=O)N1CCn2nc(-c3ccccc3)cc2C1CC1CCCCC1)C(=O)N1CCn2nc(-c3ccccc3)cc2C1CC1CCCCC1 (mixture of isomers) [Example 12, (2R)-3-({(2R)-2-amino-3-[(4RS)-4-(cyclohexylmethyl)-2-phenyl-6,7-dihydropyrazolo[1,5-a]pyrazin-5(4H)-yl]-3-oxopropyl}dithio)-1-[(4RS)-4-(cyclohexylmethyl)-2-phenyl-6,7-dihydropyrazolo[1,5-a]pyrazin-5(4H)-yl]-1-oxopropan-2-amine hydrochloride]
9 | – | ≤ 1 | ≤ 0.01 | ≤ 15 | – | N[C@@H](CSSC[C@H](N)C(=O)N1CCn2nc(-c3ccccc3)cc2[C@@H]1CC1CCCCC1)C(=O)N1CCn2nc(-c3ccccc3)cc2[C@@H]1CC1CCCCC1 [Example 24, (2R)-3-({(2R)-2-amino-3-[(4S)-4-(cyclohexylmethyl)-2-phenyl-6,7-dihydropyrazolo[1,5-a]pyrazin-5(4H)-yl]-3-oxopropyl}dithio)-1-[(4S)-4-(cyclohexylmethyl)-2-phenyl-6,7-dihydropyrazolo[1,5-a]pyrazin-5(4H)-yl]-1-oxopropan-2-amine hydrochloride]
10 | – | ≤ 1 | ≤ 0.01 | ≤ 15 | – | N[C@@H](CSSC[C@H](N)C(=O)N1CCn2nc(-c3ccccc3)cc2C1CCc1ccccc1)C(=O)N1CCn2nc(-c3ccccc3)cc2C1CCc1ccccc1 (mixture of isomers) [Example 13, (2R)-3-({(2R)-2-amino-3-oxo-3-[(4RS)-2-phenyl-4-(2-phenylethyl)-6,7-dihydropyrazolo[1,5-a]pyrazin-5(4H)-yl]propyl}dithio)-1-oxo-1-[(4RS)-2-phenyl-4-(2-phenylethyl)-6,7-dihydropyrazolo[1,5-a]pyrazin-5(4H)-yl]propan-2-amine hydrochloride]
